The values below come from patent US20240190880A1 (THE REGENTS OF THE UNIVERSITY OF MICHIGAN, priority 2021, published 2024).

The structures appear in SMILES notation. A value given as a limit tells only on which side of the number the result lay.

The first test deals with T1, ER (Homo sapiens, UniProt P03372).
T1 construct: host or cells: T47D and MCF7 human breast cancer cells
T1 sequence (P03372 1-595): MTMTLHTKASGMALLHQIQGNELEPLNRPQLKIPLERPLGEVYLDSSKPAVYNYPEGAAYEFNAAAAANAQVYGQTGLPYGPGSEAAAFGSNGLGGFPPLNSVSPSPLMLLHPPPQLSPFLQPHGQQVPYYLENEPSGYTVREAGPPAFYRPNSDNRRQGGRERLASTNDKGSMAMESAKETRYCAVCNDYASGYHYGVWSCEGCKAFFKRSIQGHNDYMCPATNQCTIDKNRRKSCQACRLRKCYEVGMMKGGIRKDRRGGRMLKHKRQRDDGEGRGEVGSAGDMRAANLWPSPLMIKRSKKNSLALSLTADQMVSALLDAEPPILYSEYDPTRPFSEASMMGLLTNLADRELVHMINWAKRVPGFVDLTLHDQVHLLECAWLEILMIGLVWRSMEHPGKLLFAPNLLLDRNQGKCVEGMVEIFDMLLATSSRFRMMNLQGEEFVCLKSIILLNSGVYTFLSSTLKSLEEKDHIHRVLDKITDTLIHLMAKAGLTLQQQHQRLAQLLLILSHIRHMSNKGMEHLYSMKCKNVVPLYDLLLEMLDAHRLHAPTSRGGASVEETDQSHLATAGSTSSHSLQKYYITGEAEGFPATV
In words: ER degradation activity, in-cell western blot analysis in T47D cells. The following applies: 16 hours, Table A does not say which cell line (T47D or MCF7), read-out: Potency (DC50). The class given is cell-based. The gist of the method:
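ER protein remaining after 16 h compound exposure is quantified in T47D cells by in-cell western, with a no-primary-antibody background control. Values are percentages of DMSO-treated signal.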
Broadly, the DC50 is the midpoint of the concentration-degradation curve. Consider `O=C1CCC(N2C(=O)c3cc4c(cc3C2=O)CN(CC(=O)N2CC3(CCN(c5ccc([C@@H]6c7ccc(O)cc7CC[C@@H]6c6ccccc6)cc5)CC3)C2)CCC4)C(=O)N1` (stereo partly drawn) [E 171, 2-(2,6-dioxopiperidin-3-yl)-6-(2-(7-(4-((1R,2S)-6-hydroxy-2-phenyl-1,2,3,4-tetrahydronaphthalen-1-yl)phenyl)-2,7-diazaspiro[3.5]nonan-2-yl)-2-oxoethyl)-6,7,8,9-tetrahydroazepino[3,4-f]isoindole-1,3(2H,5H)-dione], for which the DC50 was above 100 nM. With `C[C@@H]1Cc2c([nH]c3ccccc23)[C@@H](c2c(F)cc(C3CCN(C(=O)[C@H]4CC[C@@H](N5Cc6cc7c(cc6C5)C(=O)N(C5CCC(=O)NC5=O)C7=O)CC4)CC3)cc2F)N1CC(F)F` (stereo partly drawn) [E 392, 6-((1S,4s)-4-(4-(4-((1R,3R)-2-(2,2-difluoroethyl)-3-methyl-2,3,4,9-tetrahydro-1H-pyrido[3,4-b]indol-1-yl)-3,5-difluorophenyl)piperidine-1-carbonyl)cyclohexyl)-2-(2,6-dioxopiperidin-3-yl)-6,7-dihydropyrrolo[3,4-f]isoindole-1,3(2H,5H)-dione], the 50% degradation concentration (DC50) fell in the range of 10 to 100 nM. For `O=C1CCC(N2C(=O)c3cc4c(cc3C2=O)CN(CC(=O)N2CCC3(CCC(Oc5ccc([C@@H]6c7ccc(O)cc7CC[C@@H]6c6ccccc6)cc5)CC3)CC2)C4)C(=O)N1` (stereo partly drawn) [E 224, 2-(2,6-dioxopiperidin-3-yl)-6-(2-(9-(4-((1R,2S)-6-hydroxy-2-phenyl-1,2,3,4-tetrahydronaphthalen-1-yl)phenoxy)-3-azaspiro[5.5]undecan-3-yl)-2-oxoethyl)-6,7-dihydropyrrolo[3,4-f]isoindole-1,3(2H,5H)-dione], the half-maximal degradation concentration (DC50) is above 100 nM. Take `C[C@@H]1Cc2c([nH]c3ccccc23)[C@@H](c2c(F)cc(N3CCC4(CCN(C(=O)CN5Cc6cc7c(cc6C5)C(=O)N(C5CCC(=O)NC5=O)C7=O)CC4)C3)cc2F)N1CC(F)F` (stereo partly drawn) [E 135, 6-(2-(2-(4-((1R,3R)-2-(2,2-difluoroethyl)-3-methyl-2,3,4,9-tetrahydro-1H-pyrido[3,4-b]indol-1-yl)-3,5-difluorophenyl)-2,8-diazaspiro[4.5]decan-8-yl)-2-oxoethyl)-2-(2,6-dioxopiperidin-3-yl)-6,7-dihydropyrrolo[3,4-f]isoindole-1,3(2H,5H)-dione]: the DC50 is below 10 nM. Consider `C[C@@H]1Cc2c([nH]c3ccccc23)[C@@H](c2c(F)cc(N3CC4(CC(C(=O)N5CCC(CN6Cc7cc8c(cc7C6)C(=O)N(C6CCC(=O)NC6=O)C8=O)CC5)C4)C3)cc2F)N1CC(F)F` (stereo partly drawn) [E 115, 6-((1-(2-(4-((1R,3R)-2-(2,2-difluoroethyl)-3-methyl-2,3,4,9-tetrahydro-1H-pyrido[3,4-b]indol-1-yl)-3,5-difluorophenyl)-2-azaspiro[3.3]heptane-6-carbonyl)piperidin-4-yl)methyl)-2-(2,6-dioxopiperidin-3-yl)-6,7-dihydropyrrolo[3,4-f]isoindole-1,3(2H,5H)-dione], for which the DC50 is below 10 nM.

Take `O=C1CCC(N2C(=O)c3cc4c(cc3C2=O)CN(CC(=O)N2CCC3(CC2)CCN(c2ccc([C@@H]5c6ccc(O)cc6CC[C@@H]5c5ccccc5)cn2)CC3)C4)C(=O)N1` (mixture of isomers) [E 297, Rac-2-(2,6-dioxopiperidin-3-yl)-6-(2-(9-(5-((1S,2S)-6-hydroxy-2-phenyl-1,2,3,4-tetrahydronaphthalen-1-yl)pyridin-2-yl)-3,9-diazaspiro[5.5]undecan-3-yl)-2-oxoethyl)-6,7-dihydropyrrolo[3,4-f]isoindole-1,3(2H,5H)-dione]: the DC50 is above 100 nM. Same read-out and setting: for `C[C@@H]1Cc2c([nH]c3ccccc23)[C@@H](c2c(F)cc(N3CCC4(CC3)CC(C(=O)N3CCC(N5Cc6cc7c(cc6C5)C(=O)N(C5CCC(=O)NC5=O)C7)CC3)C4)cc2F)N1CC(F)F` (stereo partly drawn) [E 101, 3-(6-(1-(7-(4-((1R,3R)-2-(2,2-difluoroethyl)-3-methyl-2,3,4,9-tetrahydro-1H-pyrido[3,4-b]indol-1-yl)-3,5-difluorophenyl)-7-azaspiro[3.5]nonane-2-carbonyl)piperidin-4-yl)-1-oxo-3,5,6,7-tetrahydropyrrolo[3,4-f]isoindol-2(1H)-yl)piperidine-2,6-dione] the value was below 10 nM. In the case of `C[C@@H]1Cc2c([nH]c3ccccc23)[C@@H](c2c(F)cc(N3CC4(CC(C(=O)N5CCC(N6Cc7cc8c(cc7C6)C(=O)N(C6CCC(=O)NC6=O)C8=O)CC5)C4)C3)cc2F)N1CC(F)F` (stereo partly drawn) [E 116, 6-(1-(2-(4-((1R,3R)-2-(2,2-difluoroethyl)-3-methyl-2,3,4,9-tetrahydro-1H-pyrido[3,4-b]indol-1-yl)-3,5-difluorophenyl)-2-azaspiro[3.3]heptane-6-carbonyl)piperidin-4-yl)-2-(2,6-dioxopiperidin-3-yl)-6,7-dihydropyrrolo[3,4-f]isoindole-1,3(2H,5H)-dione], the DC50 was below 10 nM. Regarding `O=C1CCC(N2C(=O)c3cc4c(cc3C2=O)CN(Cc2cnc(N3CC(Oc5ccc([C@@H]6c7ccc(O)cc7CC[C@@H]6c6ccccc6)cc5)C3)nc2)C4)C(=O)N1` (stereo partly drawn) [E330, 2-(2,6-dioxopiperidin-3-yl)-6-((2-(3-(4-((1R,2S)-6-hydroxy-2-phenyl-1,2,3,4-tetrahydronaphthalen-1-yl)phenoxy)azetidin-1-yl)pyrimidin-5-yl)methyl)-6,7-dihydropyrrolo[3,4-f]isoindole-1,3(2H,5H)-dione], the DC50 was above 100 nM. Same read-out and setting: for `C[C@@H]1Cc2c([nH]c3ccccc23)[C@@H](c2c(F)cc(N3CC4(CCN(CC(=O)N5Cc6cc7c(cc6C5)C(=O)N(C5CCC(=O)NC5=O)C7=O)C4)C3)cc2F)N1CC(F)F` (stereo partly drawn) [E 74, 6-(2-(2-(4-((1R,3R)-2-(2,2-difluoroethyl)-3-methyl-2,3,4,9-tetrahydro-1H-pyrido[3,4-b]indol-1-yl)-3,5-difluorophenyl)-2,6-diazaspiro[3.4]octan-6-yl)acetyl)-2-(2,6-dioxopiperidin-3-yl)-6,7-dihydropyrrolo[3,4-f]isoindole-1,3(2H,5H)-dione] the value was 10 to 100 nM. Still for that read-out and setting: for `C[C@@H]1Cc2c([nH]c3ccccc23)[C@@H](c2c(F)cc(N3CCC4(CC3)CN(C(=O)CN3Cc5cc6c(cc5C3)C(=O)N(C3CCC(=O)NC3=O)C6=O)C4)cc2F)N1CC(F)F` (stereo partly drawn) [E 111, 6-(2-(7-(4-((1R,3R)-2-(2,2-difluoroethyl)-3-methyl-2,3,4,9-tetrahydro-1H-pyrido[3,4-b]indol-1-yl)-3,5-difluorophenyl)-2,7-diazaspiro[3.5]nonan-2-yl)-2-oxoethyl)-2-(2,6-dioxopiperidin-3-yl)-6,7-dihydropyrrolo[3,4-f]isoindole-1,3(2H,5H)-dione] the value was below 10 nM; for `O=C1CCC(N2C(=O)c3cc4c(cc3C2=O)CN(CC(=O)N2CCC3(CC2)CCN(c2cc(F)c([C@@H]5c6ccc(O)cc6CC[C@@H]5c5ccccc5)c(F)c2)CC3)C4)C(=O)N1` (mixture of isomers) [E 176, Rac-6-(2-(9-(3,5-difluoro-4-((1S,2S)-6-hydroxy-2-phenyl-1,2,3,4-tetrahydronaphthalen-1-yl)phenyl)-3,9-diazaspiro[5.5]undecan-3-yl)-2-oxoethyl)-2-(2,6-dioxopiperidin-3-yl)-6,7-dihydropyrrolo[3,4-f]isoindole-1,3(2H,5H)-dione], above 100 nM; for `C[C@@H]1Cc2c([nH]c3ccccc23)[C@@H](c2c(F)cc(N3CCC4(CC3)CN(CC3Cc5cc6c(cc5C3)C(=O)N(C3CCC(=O)NC3=O)C6=O)C4)cc2F)N1CC(F)F` (stereo partly drawn) [E 232, 6-((7-(4-((1R,3R)-2-(2,2-difluoroethyl)-3-methyl-2,3,4,9-tetrahydro-1H-pyrido[3,4-b]indol-1-yl)-3,5-difluorophenyl)-2,7-diazaspiro[3.5]nonan-2-yl)methyl)-2-(2,6-dioxopiperidin-3-yl)-6,7-dihydrocyclopenta[f]isoindole-1,3(2H,5H)-dione], above 100 nM.

The same test, now with this note: compounds 16 hours, Table A does not say whether T47D or MCF7, read-out: Potency (DC50).
In the case of `C[C@@H]1Cc2c([nH]c3ccccc23)[C@@H](c2ncc(C3=CCC(C(=O)N4CCC(N5Cc6cc7c(cc6C5)C(=O)N(C5CCC(=O)NC5=O)C7=O)CC4)CC3)cc2F)N1CC(C)(F)F` (stereo partly drawn) [E 483, 6-(1-(4-(6-((1S,3R)-2-(2,2-difluoropropyl)-3-methyl-2,3,4,9-tetrahydro-1H-pyrido[3,4-b]indol-1-yl)-5-fluoropyridin-3-yl)cyclohex-3-ene-1-carbonyl)piperidin-4-yl)-2-(2,6-dioxopiperidin-3-yl)-6,7-dihydropyrrolo[3,4-f]isoindole-1,3(2H,5H)-dione], the half-maximal degradation concentration (DC50) was above 100 nM. As for `C[C@@H]1Cc2c([nH]c3ccccc23)[C@@H](c2cnc(N3CC4(CCC(CN5Cc6cc7c(cc6C5)C(=O)N(C5CCC(=O)NC5=O)C7=O)CC4)C3)nc2)N1CC(F)(F)CO` (stereo partly drawn) [E 513, 6-((2-(5-((1R,3R)-2-(2,2-difluoro-3-hydroxypropyl)-3-methyl-2,3,4,9-tetrahydro-1H-pyrido[3,4-b]indol-1-yl)pyrimidin-2-yl)-2-azaspiro[3.5]nonan-7-yl)methyl)-2-(2,6-dioxopiperidin-3-yl)-6,7-dihydropyrrolo[3,4-f]isoindole-1,3(2H,5H)-dione], the 50% degradation concentration (DC50) lay in the range of 10 to 100 nM.
